Assay results: US7799804B2, “Therapeutic agents” (Astrazeneca AB, priority 2004, dated 2010)

Biological target: T1, CB1 receptor (Homo sapiens, UniProt P21554)
T1 construct: expressed in transfected cells
Test: [35S]-GTPγS binding assay on membranes from cells stably transfected with the CB1 gene, inhibition of agonist CP55940 (EC80)
Format: biochemical
Details: half maximal inhibition of GTPγS binding in presence of EC80 concentration of CP55940; 30° C., 45 min
Experimental: 10 μg of membranes prepared from cells stably transfected with the CB1 gene were suspended in 200 μl of 100 mM NaCl, 5 mM MgCl2, 1 mM EDTA, 50 mM HEPES (pH 7.4), 1 mM DTT, 0.1% BSA and 100 μM GDP.
The reaction was allowed to proceed at 30° C. for 45 min. Samples were then transferred on to GF/B filters using a cell harvester and washed with wash buffer (50 mM Tris (pH 7.4), 5 mM MgCl2, 50 mM NaCl). Filters were then covered with scintillant and counted for the amount of [^35S]-GTPγS retained by the filter.
Activity is measured in the absence of all ligands (minimum activity) or in the presence of an EC80 concentration of CP55940 (maximum activity). These activities are set as 0% and 100% activity respectively. At various concentrations of novel ligand, activity is calculated as a percentage of the maximum activity and plotted. The data are fitted using the equation y=A+((B−A)/1+((C/x) UD)) and the IC50 value determined as the concentration required to give half maximal inhibition of GTPγS binding under the conditions used.

T1 sequence (P21554 whole entry): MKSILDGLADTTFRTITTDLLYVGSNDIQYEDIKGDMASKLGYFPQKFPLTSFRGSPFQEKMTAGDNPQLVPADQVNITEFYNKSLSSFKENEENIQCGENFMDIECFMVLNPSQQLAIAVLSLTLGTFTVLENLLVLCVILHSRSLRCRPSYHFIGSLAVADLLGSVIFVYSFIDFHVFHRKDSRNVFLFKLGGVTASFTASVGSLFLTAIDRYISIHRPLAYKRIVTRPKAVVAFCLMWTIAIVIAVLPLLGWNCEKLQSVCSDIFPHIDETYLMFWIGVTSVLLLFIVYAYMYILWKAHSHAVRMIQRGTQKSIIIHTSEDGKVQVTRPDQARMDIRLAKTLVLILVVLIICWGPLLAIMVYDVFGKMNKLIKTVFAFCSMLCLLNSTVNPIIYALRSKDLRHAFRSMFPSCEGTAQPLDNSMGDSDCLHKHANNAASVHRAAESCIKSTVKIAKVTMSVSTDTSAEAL

## CCS(=O)(=O)Oc1ccc(-n2c(-c3ccc(Cl)cc3Cl)nc(C(=O)NN3CCCCC3)c2C)cc1 [Example 2, Ethanesulfonic acid 4-[2-(2,4-dichlorophenyl)-5-methyl-4-(piperidin-1-ylcarbamoyl)-imidazol-1-yl]-phenyl ester]
  IC50: 28 nM
